ChEMBL document CHEMBL3046360, “Design, synthesis and preliminary antiviral screening of new N-phenylpyrazole and dihydroisoxazole derivatives” (Med Chem Res, 2010)
pEC50: −log10 of the molar value. Calls of active or inactive are those of the source. No cut-off for these calls is given here.

Experiments:
[1] = Cytotoxicity against Chlorocebus aethiops (African green monkey) Vero cells after 3 days by microscopic analysis; assay type: cell-based; settings: chlorocebus sabaeus
[2] = tested on: Human immunodeficiency virus 2; test: Antiviral activity against Human immunodeficiency virus type 2 (ISOLATE ROD) infected MT4 cells assessed as inhibition of virus-induced cytopathic effect up to 20 ug/ml after 5 days by MTT assay; assay type: functional, organism-based
Human alphaherpesvirus 1 [3] = test: Antiviral activity against Human herpesvirus 1 infected Vero cells assessed as reduction in viral plaque at 10 ug/ml after overnight incubation by crystal violet staining; assay type: functional; set-up: scale not given: the % may be the effect or the level left
Hepatovirus A [4] = test: Antiviral activity against Hepatitis A virus infected Vero cells assessed as reduction in viral plaque at 20 ug/ml after overnight incubation by crystal violet staining; assay type: functional; set-up: scale not given: the % may be the effect or the level left
Human alphaherpesvirus 1 [5] = test: Antiviral activity against Human herpesvirus 1 infected Vero cells assessed as reduction in viral plaque at 20 ug/ml after overnight incubation by crystal violet staining; assay type: functional; set-up: scale not given: the % may be the effect or the level left
Hepatovirus A [6] = test: Antiviral activity against Hepatitis A virus infected Vero cells assessed as reduction in viral plaque at 10 ug/ml after overnight incubation by crystal violet staining; assay type: functional; set-up: scale not given: the % may be the effect or the level left
[7] = tested on: Human immunodeficiency virus 1; test: Antiviral activity against Human immunodeficiency virus 1 IIIB infected MT4 cells assessed as inhibition of virus-induced cytopathic effect up to 20 ug/ml after 5 days by MTT assay; assay type: functional, organism-based
[8] = Selectivity ratio of MCC for human HEL cells to EC50 for Vesicular stomatitis virus; assay type: ADME, cell-based
Human respirovirus 3 = test: Antiviral activity against Human parainfluenza virus 3 infected Vero cells assessed as inhibition of virus-induced cytopathic effect after 3 days by MTT assay; assay type: functional, organism-based; settings: Human respirovirus 3, Vero, 72 h
[9] = Cytotoxicity against Homo sapiens (human) HEL cells after 3 days by microscopic analysis; assay type: cell-based
Human alphaherpesvirus 2 = test: Antiviral activity against Human herpesvirus 2 strain G infected HEL cells assessed as inhibition of virus-induced cytopathic effect after 3 days by MTT assay; assay type: functional, organism-based; settings: Human alphaherpesvirus 2, strain G, 72 h
[10] = Selectivity ratio of MCC for human HEL cells to EC50 for Herpes simplex virus 2 G; assay type: ADME, cell-based
Punta Toro virus = test: Antiviral activity against Punta Toro virus infected Vero cells assessed as inhibition of virus-induced cytopathic effect after 3 days by MTT assay; assay type: functional, organism-based; settings: 72 h
Human alphaherpesvirus 1 [11] = test: Antiviral activity against acyclovir-resistant TK-deficient Hepres simplex virus 1 KOS infected in HEL cells assessed as inhibition of virus-induced cytopathic effect after 3 days by MTT assay; assay type: functional, organism-based; settings: Human alphaherpesvirus 1, KOS, 72 h
[12] = Cytotoxicity against Homo sapiens (human) HeLa cells after 3 days by microscopic analysis; assay type: cell-based
Sindbis virus = test: Antiviral activity against Sindbis virus infected Vero cells assessed as inhibition of virus-induced cytopathic effect after 3 days by MTT assay; assay type: functional, organism-based; settings: 72 h
[13] = tested on: Respiratory syncytial virus; test: Antiviral activity against Respiratory syncytial virus infected HeLa cells assessed as inhibition of virus-induced cytopathic effect after 3 days by MTT assay; assay type: functional, organism-based; settings: human respiratory syncytial virus, 72 h
[14] = tested on: Vesicular stomatitis virus; test: Antiviral activity against Vesicular stomatitis virus infected HeLa cells assessed as inhibition of virus-induced cytopathic effect after 3 days by MTT assay; assay type: functional, organism-based; settings: 72 h
[15] = Selectivity ratio of MCC for human HEL cells to EC50 for Herpes simplex virus 1 KOS; assay type: ADME, cell-based
Coxsackievirus B4 [16] = test: Antiviral activity against Human coxsackievirus B4 infected Vero cells assessed as inhibition of virus-induced cytopathic effect after 3 days by MTT assay; assay type: functional, organism-based; settings: Enterovirus B, 72 h
[17] = Selectivity ratio of MCC for human HEL cells to EC50 for acyclovir-resistant TK-deficient Hepres simplex virus 1 KOS; assay type: ADME, cell-based
[18] = Selectivity ratio of MCC for human HEL cells to EC50 for Vaccinia virus; assay type: ADME, cell-based
Reovirus sp. = test: Antiviral activity against Mammalian orthoreovirus 1 virus infected Vero cells assessed as inhibition of virus-induced cytopathic effect after 3 days by MTT assay; assay type: functional, organism-based; settings: 72 h
[19] = tested on: Vesicular stomatitis virus; test: Antiviral activity against Vesicular stomatitis virus infected HEL cells assessed as inhibition of virus-induced cytopathic effect after 3 days by MTT assay; assay type: functional, organism-based; settings: 72 h
Vaccinia virus = test: Antiviral activity against Vaccinia virus infected in HEL cells assessed as inhibition of virus-induced cytopathic effect after 3 days by MTT assay; assay type: functional, organism-based; settings: Orthopoxvirus vaccinia, 72 h
Coxsackievirus B4 [20] = test: Antiviral activity against Human coxsackievirus B4 infected HeLa cells assessed as inhibition of virus-induced cytopathic effect after 3 days by MTT assay; assay type: functional, organism-based; settings: Enterovirus B, 72 h
Human alphaherpesvirus 1 [21] = test: Antiviral activity against Human herpesvirus 1 strain KOS infected in HEL cells assessed as inhibition of virus-induced cytopathic effect after 3 days by MTT assay; assay type: functional, organism-based; settings: Human alphaherpesvirus 1, KOS, 72 h

| SMILES | MCC at 72 h [1] | Activity [2] | Activity (Human alphaherpesvirus 1 [3]) [%] | Activity (Hepatovirus A [4]) [%] | Activity (Human alphaherpesvirus 1 [5]) [%] | Activity (Hepatovirus A [6]) [%] | Activity [7] | EC50 (Human respirovirus 3) [µg/mL] | MCC at 72 h [9] | EC50 (Human alphaherpesvirus 2) [µg/mL] | EC50 (Punta Toro virus) [µg/mL] | EC50 (Human alphaherpesvirus 1 [11]) [µg/mL] | MCC at 72 h [12] | EC50 (Sindbis virus) [µg/mL] | EC50 [13] [µg/mL] | EC50 [14] [µg/mL] | EC50 (Coxsackievirus B4 [16]) [µg/mL] | EC50 (Reovirus sp.) [µg/mL] | EC50 [19] [µg/mL] | EC50 (Human alphaherpesvirus 1 [21]) [µg/mL] | pEC50 (Human alphaherpesvirus 2) | pEC50 (Human alphaherpesvirus 1 [11]) | pEC50 [19] | pEC50 (Human respirovirus 3) | pEC50 (Punta Toro virus) | pEC50 (Sindbis virus) | pEC50 [13] | pEC50 [14] | pEC50 (Coxsackievirus B4 [16]) | pEC50 (Reovirus sp.) | pEC50 (Human alphaherpesvirus 1 [21]) | other results |
| --- | --- | --- | --- | --- | --- | --- | --- | --- | --- | --- | --- | --- | --- | --- | --- | --- | --- | --- | --- | --- | --- | --- | --- | --- | --- | --- | --- | --- | --- | --- | --- | --- |
| Cc1ccc(C2=NOC(c3ccc(OCc4ccccc4)cc3)C2)cc1 (stereo not given) | > 100 µg/mL | inactive | 45 | 46 | 79 | 27 | inactive | – | – | – | – | – | – | – | – | – | – | – | – | – | – | – | – | – | – | – | – | – | – | – | – | – |
| Brc1ccc(C2=NN(c3ccccc3)C(c3ccc(OCc4ccccc4)cc3)C2)cc1 (stereo not given) | ≥ 20 µg/mL | inactive | 13.3 | 16 | 50 | 2 | inactive | > 20 | 100 µg/mL | > 20 | > 20 | > 20 | 100 µg/mL | > 20 | > 20 | > 20 | > 20 | > 20 | > 20 | > 20 | – | – | – | – | – | – | – | – | – | – | – | selectivity ratio [8]: > 5; selectivity ratio [10]: > 5; selectivity ratio [15]: > 5; selectivity ratio [17]: > 5; selectivity ratio [18]: > 5; EC50 (Vaccinia virus): > 20 µg/mL; EC50 (Coxsackievirus B4 [20]): > 20 µg/mL |
| Clc1ccc(C2=NN(c3ccccc3)C(c3ccc(OCc4ccccc4)cc3)C2)cc1 (stereo not given) | 100 µg/mL | inactive | 19 | 21 | 43 | 0 | inactive | > 20 | 100 µg/mL | > 20 | > 20 | > 20 | ≥ 20 µg/mL | > 20 | > 20 | > 20 | > 20 | > 20 | > 20 | > 20 | – | – | – | – | – | – | – | – | – | – | – | selectivity ratio [8]: > 5; selectivity ratio [10]: > 5; selectivity ratio [15]: > 5; selectivity ratio [17]: > 5; selectivity ratio [18]: > 5; EC50 (Vaccinia virus): > 20 µg/mL; EC50 (Coxsackievirus B4 [20]): > 20 µg/mL |
| Cc1ccc(C2=NN(c3ccccc3)C(c3ccc(OCc4ccccc4)cc3)C2)cc1 (stereo not given) | 100 µg/mL | inactive | 31 | 39 | 58 | 14 | inactive | > 20 | 100 µg/mL | > 20 | > 20 | > 20 | 100 µg/mL | > 20 | > 20 | > 20 | > 20 | > 20 | > 20 | > 20 | – | – | – | – | – | – | – | – | – | – | – | selectivity ratio [8]: > 5; selectivity ratio [10]: > 5; selectivity ratio [15]: > 5; selectivity ratio [17]: > 5; selectivity ratio [18]: > 5; EC50 (Vaccinia virus): > 20 µg/mL; EC50 (Coxsackievirus B4 [20]): > 20 µg/mL |
| Clc1ccc(C2=NOC(c3ccc(OCc4ccccc4)cc3)C2)cc1 (stereo not given) | > 100 µg/mL | inactive | 38 | 58 | 60 | 10 | inactive | – | – | – | – | – | – | – | – | – | – | – | – | – | – | – | – | – | – | – | – | – | – | – | – | – |
| Brc1ccc(C2=NOC(c3ccc(OCc4ccccc4)cc3)C2)cc1 (stereo not given) | ≥ 20 µg/mL | inactive | 26.1 | 21 | 67 | 7.3 | inactive | – | – | – | – | – | – | – | – | – | – | – | – | – | – | – | – | – | – | – | – | – | – | – | – | – |
| Nc1nc2c(ncn2COC(CO)CO)c(=O)[nH]1 [GANCICLOVIR] | – | – | – | – | – | – | – | – | > 100 µM | – | – | – | – | – | – | – | – | – | – | – | 7.10 | 5.22 | < 4.00 | – | – | – | – | – | – | – | – | pEC50 (Vaccinia virus): < 4.00 |
| Nc1ncnc2c1ncn2C[C@H](O)CO [(S)-DHPA] | > 250 µM | – | – | – | – | – | – | – | – | – | – | – | > 250 µM | – | – | – | – | – | – | – | – | – | – | < 3.60 | < 3.60 | < 3.60 | < 3.60 | < 3.60 | < 3.60 | < 3.60 | – | pEC50 (Coxsackievirus B4 [20]): < 3.60 |
| Nc1ccn(C[C@@H](CO)OCP(=O)(O)O)c(=O)n1 [CIDOFOVIR] | – | – | – | – | – | – | – | – | > 250 µM | – | – | – | – | – | – | – | – | – | – | – | 5.30 | – | < 3.60 | – | – | – | – | – | – | – | 5.52 | – |
| c1ccc(COc2ccc(C3CC(c4ccccc4)=NN3c3ccccc3)cc2)cc1 (stereo not given) | 100 µg/mL | inactive | 0 | 23 | 30 | 7 | inactive | > 20 | 100 µg/mL | > 20 | > 20 | > 20 | 100 µg/mL | > 20 | > 20 | > 20 | > 20 | > 20 | > 20 | > 20 | – | – | – | – | – | – | – | – | – | – | – | selectivity ratio [8]: > 5; selectivity ratio [10]: > 5; selectivity ratio [15]: > 5; selectivity ratio [17]: > 5; selectivity ratio [18]: > 5; EC50 (Vaccinia virus): > 20 µg/mL; EC50 (Coxsackievirus B4 [20]): > 20 µg/mL |
| c1ccc(COc2ccc(C3CC(c4ccccc4)=NO3)cc2)cc1 (stereo not given) | > 100 µg/mL | inactive | 3 | 2 | 15 | 0 | inactive | – | – | – | – | – | – | – | – | – | – | – | – | – | – | – | – | – | – | – | – | – | – | – | – | – |
| O=c1[nH]c(=O)n([C@H]2C[C@H](O)[C@@H](CO)O2)cc1/C=C/Br [BRIVUDINE] | – | – | – | – | – | – | – | – | > 250 µM | – | – | – | – | – | – | – | – | – | – | – | 3.90 | < 3.60 | < 3.60 | – | – | – | – | – | – | – | – | – |
| NC(=O)c1ncn([C@@H]2O[C@H](CO)[C@@H](O)[C@H]2O)n1 [RIBAVIRIN] | > 250 µM | – | – | – | – | – | – | – | > 250 µM | – | – | – | > 250 µM | – | – | – | – | – | – | – | < 3.60 | < 3.60 | < 3.60 | 4.35 | – | < 3.60 | – | – | < 3.60 | < 3.60 | < 3.60 | – |
